The values that follow come from ChEMBL document CHEMBL1130376, “Effects of taxoids from Taxus cuspidata on microtubule depolymerization and vincristine accumulation in MDR cells” (Bioorg Med Chem Lett, 1997).

The term IC50 denotes the concentration that inhibits the measured activity by half.

In assay [1] the target is Tubulin alpha chain (Sus scrofa) (UniProt P02550). Description: Tested for inhibitory concentration against […]-induced depolymerization of microtubules. Format: functional.
Assay [2] in a line: Vincristine (VCR) accumulation in multidrug resistant human ovarian cancer 2780 AD cells at a concentration 10 ug/mL. Format: functional.
The test system of the next assay is L1210. The experiment in a line: Cytotoxicity against murine leukemia L1210 cells. Type of assay: functional, cell-based, Mus musculus. As to conditions: Mus musculus, L1210; read-out: IC50.
Assay [3] in a line: Cytotoxicity against human epidermoid carcinoma KB cells. Type of assay: functional, cell-based.
A short description of assay [4]: Vincristine (VCR) accumulation in multidrug resistant human ovarian cancer 2780 AD cells at a concentration 1 ug/mL. Type of assay: functional.

≈ marks a conversion by molar mass, not a printed value.

Sequence of Tubulin alpha chain (Sus scrofa) (P02550 whole entry, looked up): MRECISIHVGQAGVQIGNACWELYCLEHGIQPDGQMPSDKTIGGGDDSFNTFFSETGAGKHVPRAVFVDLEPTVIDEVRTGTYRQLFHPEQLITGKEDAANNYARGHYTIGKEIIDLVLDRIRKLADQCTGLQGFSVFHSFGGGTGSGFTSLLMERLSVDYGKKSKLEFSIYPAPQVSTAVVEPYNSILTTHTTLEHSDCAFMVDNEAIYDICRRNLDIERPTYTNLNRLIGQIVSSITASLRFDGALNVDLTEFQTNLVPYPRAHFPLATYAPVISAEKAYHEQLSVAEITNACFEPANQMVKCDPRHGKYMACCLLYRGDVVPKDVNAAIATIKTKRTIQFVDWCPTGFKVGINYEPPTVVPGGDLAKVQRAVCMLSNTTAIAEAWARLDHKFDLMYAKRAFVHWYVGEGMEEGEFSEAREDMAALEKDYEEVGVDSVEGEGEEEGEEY

Consider `CC(=O)O[C@H]1C(=O)[C@@]2(C)[C@H]([C@H](OC(=O)c3ccccc3)[C@]3(O)C[C@H](OC(=O)[C@H](O)[C@@H](NC(=O)c4ccccc4)c4ccccc4)C(C)=C1C3(C)C)[C@]1(OC(C)=O)CO[C@@H]1C[C@@H]2O`, for which the Concentration in assay [1] came out at 10 µM.

Regarding `C=C1[C@@H](OC(=O)/C=C/c2ccccc2)C[C@H](OC(C)=O)[C@@]2(C)[C@@H](OC(C)=O)[C@H](OC(C)=O)[C@@]3(O)C(C)=C(OC(C)=O)C[C@@H]([C@@H](OC(C)=O)[C@H]12)C3(C)C`, the “vincristine accumulation (% of control)” value in assay [2] was found to be 325%; in assay [4], 133%. Moreover, the results for the IC50 (in the assay on L1210; in assay [3]) were 3 µg/mL (≈ 4.14 µM) and 1.8 µg/mL (≈ 2.48 µM), respectively.

Take `C=C1[C@@H](O)C[C@H](OC(C)=O)[C@@]2(C)[C@@H](OC(C)=O)[C@H](OC(C)=O)C3=C(C)C(=O)C[C@@H]([C@@H](OC(C)=O)[C@H]12)C3(C)C`: the “vincristine accumulation (% of control)” value in assay [2] was found to be 257%; in assay [4], 141%. The IC50 (in the assay with L1210; in assay [3]) was above 10 µg/mL in each case.

For `CC(=O)O[C@H]1C[C@@]2(O)[C@H]3OC[C@]4(OC(C)=O)[C@H](O)C[C@H](OC(C)=O)[C@](C)([C@H]34)[C@@H](OC(C)=O)[C@H](OC(C)=O)C(=C1C)C2(C)C`, the figures for the “vincristine accumulation (% of control)” value in assay [2] and in assay [4] were 234% and 167%, respectively. The concentration for half-maximal inhibition (IC50) with L1210 worked out at 4.5 µg/mL (≈ 7.37 µM); in assay [3] it was 8.8 µg/mL (≈ 14.4 µM).

For the molecule `C=C1[C@@H](OC(=O)/C=C/c2ccccc2)CC[C@@]2(C)[C@@H](O)[C@H](OC(C)=O)C3=C(C)C(=O)C[C@@H]([C@@H](OC(C)=O)[C@H]12)C3(C)C`, the figures for the “vincristine accumulation (% of control)” value in assay [2] and in assay [4] were 372% and 173%, respectively. Also, the IC50 was 1.1 µg/mL (≈ 1.95 µM) in the assay on L1210 and 0.17 µg/mL (≈ 0.301 µM) in assay [3].

In the case of `CC(=O)O[C@H]1C[C@H]2OC[C@@]2(OC(C)=O)[C@H]2[C@H](OC(C)=O)[C@]3(C(C)(C)O)C[C@H](O)C(C)=C3[C@@H](OC(=O)c3ccccc3)[C@H](OC(C)=O)[C@]12C`, the “vincristine accumulation (% of control)” value worked out at 240% in assay [2] and 171% in assay [4]. The IC50 (with L1210; in assay [3]) was above 10 µg/mL in each case.

Take `CC(=O)O[C@H]1[C@@H]2[C@H](CO)[C@@H](OC(C)=O)C[C@H](OC(C)=O)[C@@]2(C)[C@@H](OC(C)=O)[C@H](OC(C)=O)C2=C(C)[C@@H](OC(C)=O)C[C@@H]1C2(C)C`: the “vincristine accumulation (% of control)” value in assay [2] is 264%; in assay [4], 177%. The IC50 worked out at 10 µg/mL (≈ 15.7 µM) in the assay on L1210 and 4.5 µg/mL (≈ 7.05 µM) in assay [3].

With `C=C1[C@@H](O)C[C@H](OC(C)=O)[C@@]2(C)[C@@H](OC(C)=O)[C@H](OC(=O)c3ccccc3)C3=C(C)[C@@H](OC(C)=O)C[C@@]3(C(C)(C)O)[C@@H](OC(C)=O)[C@H]12`, the “vincristine accumulation (% of control)” value in assay [2] is given as 313%; in assay [4], 158%. Also, the IC50 (with L1210; in assay [3]) was above 10 µg/mL in each case.

`C=C1[C@@H](OC(=O)CC(c2ccccc2)N(C)C)C[C@H](OC(C)=O)[C@@]2(C)[C@@H](OC(C)=O)[C@H](OC(C)=O)[C@@]3(O)C(C)=C(OC(C)=O)C[C@@H]([C@@H](OC(C)=O)[C@H]12)C3(C)C` (stereo partly drawn): the “vincristine accumulation (% of control)” value in assay [2] was 358%; in assay [4], 133%. In addition, the values for the IC50 (in the assay on L1210; in assay [3]) were 2.5 µg/mL (≈ 3.25 µM) and 2.6 µg/mL (≈ 3.38 µM), respectively.

With `C=C1[C@@H](OC(=O)CC(c2ccccc2)N(C)C)CC[C@@]2(C)[C@@H](OC(C)=O)[C@H](OC(C)=O)C3=C(C)C(=O)C[C@@](O)([C@@H](OC(C)=O)[C@H]12)C3(C)C` (stereo partly drawn), the “vincristine accumulation (% of control)” value in assay [2] amounted to 466%; in assay [4] it was 175%. Further, the IC50 was 2.7 µg/mL (≈ 4.04 µM) in the assay on L1210 and above 10 µg/mL in assay [3].

With `C/C=C(\C)C(=O)O[C@@H]1C2=C(C)[C@@H](O)C[C@@]2(C(C)(C)O)[C@@H](OC(C)=O)[C@@H]2[C@]3(OC(C)=O)CO[C@@H]3C[C@H](OC(C)=O)[C@@]2(C)[C@H]1OC(C)=O`, the results for the “vincristine accumulation (% of control)” value in assay [2] and in assay [4] were 206% and 145%, respectively. For the same molecule, the values for the IC50 (with L1210; in assay [3]) were 4 µg/mL (≈ 6.15 µM) and 0.3 µg/mL (≈ 0.461 µM), respectively.

Consider `C=C1[C@@H](OC(=O)/C=C/c2ccccc2)C[C@H](OC(C)=O)[C@]2(C)[C@@H]1C[C@@H]1C[C@H](OC(C)=O)C(C)=C([C@@H](OC(C)=O)[C@@H]2OC(C)=O)C1(C)C`, for which the “vincristine accumulation (% of control)” value came to 798% in assay [2] and 266% in assay [4]. Also, the IC50 in the assay with L1210 was 4.9 µg/mL (≈ 7.53 µM); in assay [3], above 10 µg/mL.

As to `CC(=O)O[C@H]1C(=O)[C@@]2(C)[C@H]([C@H](OC(=O)c3ccccc3)[C@]3(O)C[C@H](OC(=O)[C@H](O)C(NC(=O)C4CCC4)c4ccccc4)C(C)=C1C3(C)C)[C@]1(OC(C)=O)CO[C@@H]1C[C@@H]2O` (stereo partly drawn), the “vincristine accumulation (% of control)” value in assay [2] is 93%; in assay [4], 88%. Besides, the IC50 in the assay with L1210 was 0.25 µg/mL (≈ 0.301 µM); in assay [3], 0.086 µg/mL (≈ 0.103 µM).

As for `C=C1[C@@H](O)CC[C@@]2(C)[C@@H](OC(C)=O)[C@H](OC(C)=O)C3=C(C)C(=O)C[C@@H]([C@@H](O)[C@H]12)C3(C)C`, the “vincristine accumulation (% of control)” value in assay [2] worked out at 271%; in assay [4], 139%. In addition, the IC50 (in the assay with L1210; in assay [3]) was above 10 µg/mL in each case.

As for `C=C1[C@@H](O)C[C@H](OC(C)=O)[C@@]2(COC(=O)c3ccccc3)[C@@H](OC(C)=O)[C@H](OC(C)=O)[C@]3(O)[C@@]4(C)CO[C@]3(C)C(=O)C[C@H]4[C@@H](OC(C)=O)[C@H]12` [TAXININ M], the “vincristine accumulation (% of control)” value in assay [2] was 169%; in assay [4], 115%. Further, the IC50 is above 10 µg/mL in the assay with L1210 and 9.4 µg/mL (≈ 13.7 µM) in assay [3].

`C=C1[C@@H](OC(=O)CC(c2ccccc2)N(C)C)C[C@H](OC(C)=O)[C@]2(C)[C@@H]1C[C@@H]1C[C@H](OC(C)=O)C(C)=C([C@@H](OC(C)=O)[C@@H]2OC(C)=O)C1(C)C` (stereo partly drawn): the “vincristine accumulation (% of control)” value in assay [2] was found to be 841%; in assay [4], 233%. The IC50 with L1210 is 7.2 µg/mL (≈ 10.3 µM); in assay [3], above 10 µg/mL.

Regarding `C=C1[C@@H](OC(=O)CC(c2ccccc2)N(C)C)CC[C@]2(C)[C@@H]1C[C@@H]1C[C@H](OC(C)=O)C(C)=C([C@@H](OC(C)=O)[C@@H]2OC(C)=O)C1(C)C` (stereo partly drawn), the “vincristine accumulation (% of control)” value in assay [2] worked out at 882%; in assay [4], 250%. Besides, the IC50 (with L1210; in assay [3]) was above 10 µg/mL each time.

In the case of `C=C1[C@@H](O)C[C@H](OC(C)=O)[C@@]2(C)[C@@H](OC(C)=O)[C@H](OC(C)=O)[C@]3(O)[C@@]4(C)CO[C@]3(C)C(=O)C[C@H]4[C@@H](OC(C)=O)[C@H]12`, the entries for the “vincristine accumulation (% of control)” value in assay [2] and in assay [4] were 213% and 225%, respectively. The IC50 (with L1210; in assay [3]) was above 10 µg/mL in each case.

`C=C1[C@@H](OC(=O)/C=C/c2ccccc2)C[C@H](OC(C)=O)[C@@]2(COC(C)=O)[C@@H](OC(C)=O)[C@H](O)[C@]3(O)[C@@]4(C)CO[C@]3(C)C(=O)C[C@H]4[C@@H](OC(C)=O)[C@H]12` [TAXUSPINE T]: the “vincristine accumulation (% of control)” value came out at 308% in assay [2] and 196% in assay [4]. Also, the IC50 in the assay with L1210 amounted to 1 µg/mL (≈ 1.4 µM); in assay [3], 0.06 µg/mL (≈ 0.0842 µM).
